For assay [1], the system named is Keap1-dependent Nrf2 ubiquitination. The assay is described as follows: Keap1-dependent Nrf2 ubiquitination in 293T cells. In kind it is cell-based, human. The method, then: Alkylation of the BTB domain of Keap1 by covalent modifiers contributes to the disruption of the Keap1-Cul3 interactions, leading to Nrf2 activation. Next, we investigated the effect of PBA on the modulation of Nrf2 ubiquitination as Nrf2 stability is controlled by ubiquitin-mediated proteasomal degradation. First, 3X Flag-Keap1, Myc-Nrf2 and Ub plasmids were transfected into 293T cells and then, the cells were treated with 30 μM PBA for 20 h and 5 μM MG132 for another 4 h. Cell lysates were pulled down using anti-Myc beads, and immunopurified Nrf2 was examined for the occurrence of Ub by western blotting. […] As shown in Figure 6E-F, PBA could disrupt the interaction of Keap1 and Cul3 in WT-Keap1 cells, while the disruption was blocked in the Cys77S and Cys434-Keap1 mutant cells.
Figure 6 PBA suppresses Keap1-mediated ubiquitination of Nrf2 by disrupting the interaction between Cul3 and Keap1. (A and B) PBA suppressed Nrf2 ubiquitination in a Keap1-Cys77 and C434-dependent manner. First, 293T cells were transfected with WT-Keap1 or C77S and C434S-Keap1, Myc-Nrf2, and Ub plasmids for 24 h and treated with 30 μM PBA. The cell lysates were immunoprecipitated using anti-Myc beads, and the ubiquitination level was evaluated using the anti-Ub antibody. (C and D) PBA induced the dissociation of the Nrf2-Keap1 complex. Then, 293T cells were cotransfected with WT-Keap1 and Flag-Nrf2 plasmids for 24 h and treated with 30 μM PBA for 12 h. The cell lysates were immunoprecipitated with the anti-Flag antibody, and the level of Nrf2 was assessed using the anti-Nrf2 antibody. (E and F) PBA disrupted the interaction between Cul3 and Keap1. […] The cell lysates were immunoprecipitated with the anti-Flag antibody, and the level of Cul3 was measured using the anti-Cul3 antibody. #p < 0.05, ##p < 0.01, ###p < 0.001, the control vs DMSO; *p < 0.05,**p < 0.01, ***p < 0.001, PBA or tBHQ vs DMSO. […] Cell viability was measured by MTT assays. #p < 0.05, ###p < 0.001, the control vs OGD/R; **p < 0.01, ***p < 0.001, OGD/R+PBA vs OGD/R.

A further assay has as its system Nrf2. The assay can be described thus: Nrf2 expression in cardiomyocytes under OGD/R. It counts as cell-based. The settings on record: cardiomyocytes under OGD/R condition. The method, then:
Total protein was isolated from H9c2 cells, primary mouse cardiomyocytes, RAW264.7 cells and heart tissue using 1X RIPA buffer containing phosphatase and proteinase inhibitors at 4 °C. After measurement of the concentration, the cell lysates were separated by sodium dodecyl sulphate polyacrylamide gel electrophoresis (SDS-PAGE) and transferred to polyvinylidene fluoride (PVDF) membranes. The membranes were blocked in Tris-buffered saline-Tween 20 (TBST) buffer with 5% BSA for 1 h and incubated with primary antibodies (1:1000 dilution) overnight at 4 °C. After the membranes was washed by TBST buffer for three times, they were incubated with horseradish peroxidase (HRP)-conjugated secondary mouse or rabbit antibodies (1:3,000 dilution) at room temperature (RT) for 1.5 h and then detected by SuperEnhanced chemiluminescence (ECL) reaction reagents (GBCBIO Technologies Inc., Guangzhou, Guangdong, China). In brief, drop evenly the ECL working liquid onto the membrane at the ratio of 1 mL ECL working liquid and 10 cm^2 of membrane. After letting the membranes stand for 1-2 min, the bands of the respective proteins were detected with the exposure time of 10 ~60 s.

The test system of assay [2] is Nrf2 knockdown H9c2 cells. The assay is described as follows: OGD/R viability in Nrf2 siRNA knockdown H9c2. It counts as cell-based, rat. To be noted: Nrf2 siRNA 24 h, H9c2, MTT. The method, then: Cell viability was determined by MTT assays. PBA was prepared to a stock solution dissolved in dimethyl sulfoxide (DMSO). RAW264.7, H9c2 cells, primary mouse cardiomyocytes were treated with different doses of PBA, and DMSO only as control for 48 h for the toxicity. In addition, H9c2 cells or primary mouse cardiomyocytes were treated with the indicated doses of PBA, diazoxide as positive control, DMSO only as control, then cultured with or without OGD/R treatment. At the end of the experiments, MTT was added into each well at the concentration of 0.5 mg/ml, and incubated at 37 °C for 4 h. After removal of the supernatant, 150 μL of DMSO was added to solubilize the formazan products. And the solution was measured at the absorbance of 490 nm by a spectrophotometer (Thermo Fisher Scientific, MA, USA). The results of the MTT assay in all groups were normalized to the control group with DMSO only treatment.
For transient transfection, HiPerFect Transfection Reagent (Qiagen, German) was used according to the manufacturer's instructions. Nrf2 siRNA (h) (sc-156128) and control siRNA-A (sc-37007) were bought from Santa Cruz Biotechnology. Briefly, H9c2 cells were seeded in 96-well plate at the density of 2x10^4 cells per well or 12-well plate at the density of 3x10^5 cells per well. According to preliminary results, transfection with siRNA for 24 h could get a better knockdown effect. […]

Molecules are shown by their SMILES.

As for `C=C(COC(=O)C=Cc1ccc(O)c(O)c1)C(O)COC1OC(CO)C(O)C(O)C1O` (stereo not shown) [PBA, pubescenoside A], in assay [1] (WT Keap1, 30 μM PBA 20 h, 5 μM MG132 4 h), the “Keap1-dependent Nrf2 ubiquitination” value is recorded as “significantly suppressed”. For the same compound, the “protection of Nrf2 from ubiquitination with mutant Keap1” value in assay [1] (mutant Cys77S and Cys434S-Keap1 vectors) is recorded as “unable to protect Nrf2 from ubiquitination”. Moreover, the Nrf2 expression result with Nrf2 is given as “strongly induced”. For the same compound, the “cardioprotection against OGD/R after Nrf2 knockdown” value in assay [2] is “blocked”.

The values above are taken from PMC7738871, “Covalent modification of Keap1 at Cys77 and Cys434 by pubescenoside a suppresses oxidative stress-induced NLRP3 inflammasome activation in myocardial ischemia-reperfusion injury” (Theranostics, 2021).
